ChEMBL document CHEMBL1136120, “Effect of catechol derivatives on cell growth and lipoxygenase activity” (Bioorg Med Chem Lett, 2003)

Legend:
MAC16 [1] = assay: Inhibitory activity against MAC16 cell lines; assay type: functional, cell-based; settings: Mus musculus
MAC13 = assay: Inhibitory activity against MAC13 cell lines; assay type: functional, cell-based; settings: Mus musculus
[2] = biological target: Polyunsaturated fatty acid lipoxygenase ALOX15 (Oryctolagus cuniculus) (UniProt P12530); assay: Inhibition of rabbit reticulocyte 15-lipoxygenase by compound (30 uM)
Chain of Polyunsaturated fatty acid lipoxygenase ALOX15 (Oryctolagus cuniculus) (P12530 whole entry, looked up): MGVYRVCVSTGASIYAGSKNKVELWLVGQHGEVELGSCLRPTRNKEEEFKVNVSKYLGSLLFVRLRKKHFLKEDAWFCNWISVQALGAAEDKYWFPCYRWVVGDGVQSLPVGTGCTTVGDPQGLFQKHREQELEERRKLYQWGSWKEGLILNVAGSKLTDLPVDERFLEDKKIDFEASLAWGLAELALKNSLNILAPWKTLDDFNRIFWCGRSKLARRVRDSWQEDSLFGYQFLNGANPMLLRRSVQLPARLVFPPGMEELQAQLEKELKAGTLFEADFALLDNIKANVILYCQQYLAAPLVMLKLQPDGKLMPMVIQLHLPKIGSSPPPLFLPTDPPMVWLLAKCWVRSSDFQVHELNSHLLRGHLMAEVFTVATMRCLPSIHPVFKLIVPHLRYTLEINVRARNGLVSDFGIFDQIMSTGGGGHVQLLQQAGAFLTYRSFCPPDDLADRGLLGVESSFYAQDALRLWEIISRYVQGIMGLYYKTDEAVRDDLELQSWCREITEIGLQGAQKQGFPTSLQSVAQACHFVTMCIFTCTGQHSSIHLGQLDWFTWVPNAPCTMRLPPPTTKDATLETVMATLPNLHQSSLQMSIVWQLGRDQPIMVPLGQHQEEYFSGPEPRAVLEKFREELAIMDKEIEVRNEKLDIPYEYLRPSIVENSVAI

MAC16 [3] = assay: Effect on metabolism of arachidonic acid for 5-HETE production through 12-LOX (12-lipoxygenase) pathway; assay type: functional, Mus musculus
MAC16 [4] = assay: Effect on metabolism of arachidonic acid for 5-HETE production through 5-LOX (5-lipoxygenase) pathway; assay type: functional, Mus musculus
MAC16 [5] = assay: Effect on metabolism of arachidonic acid for 5-HETE production through 15-LOX (15-lipoxygenase) pathway; assay type: functional, Mus musculus
MAC16 [6] = assay: Effect on metabolism of arachidonic acid for 12-HETE production through 12-LOX (12-lipoxygenase) pathway; assay type: functional, Mus musculus
MAC16 [7] = assay: Effect on metabolism of arachidonic acid for 15-HETE production through 15-LOX (15-lipoxygenase) pathway; assay type: functional, Mus musculus

| Compound | IC50 (MAC16 [1]) [nM] | IC50 (MAC13) [nM] | inhibition [2] [%] | Eicosanoid production (MAC16 [4]) [pM 2hr-1] | other results |
| --- | --- | --- | --- | --- | --- |
| O=C(/C=C/c1ccc(NC(=O)c2ccccc2O)cc1)Nc1ccc(O)c(O)c1 | 300000 | 3000 | 102 |  |  |
| O=C(Nc1ccc(O)c(O)c1)c1ccc(NCc2ccccc2O)cc1 |  |  | 103 |  |  |
| COc1ccccc1C(=O)Nc1ccc(CCC(=O)Nc2ccc3c(c2)OC(C)(CCc2ccccc2)O3)cc1 (configuration not stated) | > 50000 | > 50000 |  | 110 | Eicosanoid production (MAC16 [3]): 78 pM 2hr-1; Eicosanoid production (MAC16 [5]): 91.5 pM 2hr-1 |
| O=C(CCc1cccc(NC(=O)c2ccccc2O)c1)Nc1ccc(O)c(O)c1 | 2600 | 330 | 102 | 4.7 | Eicosanoid production (MAC16 [6]): 7.8 pM 2hr-1; Eicosanoid production (MAC16 [7]): 5.3 pM 2hr-1 |
| O=C(Nc1ccc(O)c(O)c1)c1ccc(NC(=O)c2ccccc2O)cc1 |  |  | 100 |  |  |
| O=C(CCc1ccc(NC(=O)c2ccccc2O)cc1)Nc1ccc(O)c(O)c1 |  |  | 99 |  |  |
| O=C(Nc1ccc(/N=C(\S)Nc2ccc(O)c(O)c2)cc1)c1ccccc1O |  |  | 103 |  |  |
| CC1=C(C)C(=O)C(Cc2cccnc2)=C(C)C1=O | 4750 | 6300 | 3 | 13.3 | Eicosanoid production (MAC16 [3]): 15 pM 2hr-1; Eicosanoid production (MAC16 [5]): 22.2 pM 2hr-1 |
| CCCCCCCc1ccc(C(=O)Nc2ccc(O)c(O)c2)cc1 | 1000 | 900 |  |  |  |
| O=C(Nc1ccc(NC(=O)c2ccccc2O)cc1)Nc1ccc(O)c(O)c1 |  |  | 104 |  |  |
